Results reported in patent publication US9920017B2, “Heterocyclic compounds as pesticides” (BAYER CROPSCIENCE AKTIENGESELLSCHAFT, priority 2014, dated 2018).
Where two headings read alike, the source gives them in different places.

Legend:
[1] = system: Boophilus microplus; test: Boophilus microplus injection test; assay type: in vivo; conditions: 20 μg/animal injected into engorged adult female cattle ticks; assessed after 7 days by laying of fertile eggs
Protocol: Boophilus microplus—Injection Test
(§1) Solvent: dimethyl sulphoxide
To produce an appropriate active ingredient formulation, 10 mg of active ingredient are mixed with 0.5 ml of solvent and the concentrate is diluted with solvent to the desired concentration.
1 μl of the active ingredient solution is injected into the abdomen of 5 engorged adult female cattle ticks (Boophilus microplus). The animals are transferred into dishes and kept in a climate-controlled room.
Efficacy is assessed after 7 days by laying of fertile eggs. Eggs which are not visibly fertile are stored in a climate-controlled cabinet for about another 42 days until the larvae hatch. An efficacy of 100% means that none of the ticks has laid any fertile eggs; 0% means that all the eggs are fertile.

[2] = system: Meloidogyne incognita; test: Meloidogyne incognita test (MELGIN); assay type: in vivo; conditions: 20 ppm; lettuce; after 14 days
Protocol: Meloidogyne incognita Test (MELGIN) Solvent: 125.0 parts by weight of acetone To produce a suitable active ingredient formulation, 1 part by weight of active ingredient is mixed with the stated amount of solvent and the concentrate is diluted with water to the desired concentration. Vessels are filled with sand, active ingredient solution, an egg/larvae suspension of the southern root-knot nematode (Meloidogyne incognita) and lettuce seeds. The lettuce seeds germinate and the plants develop. The galls develop on the roots. After 14 days, the nematicidal efficacy in % is determined by the formation of galls. 100% means that no galls were found; 0% means that the number of galls on the treated plants corresponds to the untreated control.

[3] = Determination of log P values by HPLC (reversed-phase C18); assay type: physicochemical; conditions: for chromatographic logP: reversed-phase C18 HPLC column
Protocol: 1) Description of Method for Determination of the Log P Values ([…]) The log P values given in the table were determined in accordance with EEC Directive 79/831 Annex V.A8 by HPLC (High Performance Liquid Chromatography) using a reversed-phase column (C 18). Temperature: 55° C. […] Gradient: from 10% eluent A/90% eluent B to 95% eluent A/5% eluent B in 4.25 min. Calibration was effected with unbranched alkan-2-ones (having 3 to 16 carbon atoms) with known log P values (log P values determined on the basis of the retention times by linear interpolation between two successive alkanones). The lambda max values were determined in the maxima of the chromatographic signals using the UV spectra from 200 nm to 400 nm.

[4] = system: Lucilia cuprina; test: Lucilia cuprina test; assay type: in vivo; conditions: 100 ppm; L1 larvae; after 2 days
Protocol: Lucilia cuprina Test Solvent: dimethyl sulphoxide To produce an appropriate active ingredient formulation, 10 mg of active ingredient are mixed with 0.5 ml of dimethyl sulphoxide, and the concentrate is diluted with water to the desired concentration. About 20 L1 larvae of the Australian sheep blowfly (Lucilia cuprina) are transferred into a test vessel containing minced horsemeat and the active ingredient preparation of the desired concentration. After 2 days, the kill in % is determined 100% means that all the larvae have been killed; 0% means that no larvae have been killed.

[5] = system: Musca domestica; test: Musca domestica test; assay type: in vivo; conditions: 100 ppm; adult houseflies; after 2 days
Protocol: Musca domestica Test Solvent: dimethyl sulphoxide To produce an appropriate active ingredient formulation, 10 mg of active ingredient are mixed with 0.5 ml of dimethyl sulphoxide, and the concentrate is diluted with water to the desired concentration. Vessels containing a sponge treated with sugar solution and the active ingredient formulation of the desired concentration are populated with 10 adult houseflies (Musca domestica). After 2 days, the kill in % is determined 100% means that all of the flies have been killed; 0% means that none of the flies have been killed.

[6] = system: Phaedon cochleariae; test: Phaedon cochleariae spray test (PHAECO); assay type: in vivo; conditions: 500 g/ha; Chinese cabbage leaf discs, larvae; after 7 days
Protocol: Phaedon cochleariae—Spray Test (PHAECO)
(§2) Solvent: 78.0 parts by weight of acetone • • 1.5 parts by weight of dimethylformamide
(§3) Emulsifier: alkylaryl polyglycol ether
(§4) To produce an appropriate active ingredient formulation, 1 part by weight of active ingredient is dissolved using the stated parts by weight of solvent and made up with water containing an emulsifier concentration of 1000 ppm until the desired concentration is attained. To produce further test concentrations, the preparation is diluted with emulsifier-containing water.
Discs of Chinese cabbage leaves (Brassica pekinensis) are sprayed with an active ingredient formulation of the desired concentration and, after drying, populated with larvae of the mustard beetle (Phaedon cochleariae).
After 7 days, the efficacy in % is determined 100% means that all the beetle larvae have been killed; 0% means that no beetle larvae have been killed.

[7] = system: Cooperia curticei; test: Cooperia curticei test; assay type: in vivo; conditions: 20 ppm; nematode larvae; after 5 days
Protocol: as §1
To produce an appropriate active ingredient formulation, 10 mg of active ingredient are mixed with 0.5 ml of dimethyl sulphoxide and the concentrate is diluted with “Ringer's solution” to the desired concentration.
Vessels containing the active ingredient formulation of the desired concentration are populated with about 40 nematode larvae (Cooperia curticei).
After 5 days, the kill in % is determined 100% means that all the larvae have been killed; 0% means that none of the larvae have been killed.

[8] = system: Haemonchus contortus; test: Haemonchus contortus test; assay type: in vivo; conditions: 20 ppm; larvae; after 5 days
Protocol: Haemonchus contortus Test Solvent: dimethyl sulphoxide To produce an appropriate active ingredient formulation, 10 mg of active ingredient are mixed with 0.5 ml of dimethyl sulphoxide and the concentrate is diluted with “Ringer's solution” to the desired concentration. Vessels containing the active ingredient formulation of the desired concentration are populated with about 40 larvae of the red stomach worm (Haemonchus contortus). After 5 days, the kill in % is determined 100% means that all the larvae have been killed; 0% means that none of the larvae have been killed.

[9] = system: Myzus persicae; test: Myzus persicae spray test; assay type: in vivo; conditions: 500 g/ha; Chinese cabbage leaf discs; after 6 days
Protocol: Myzus persicae—Spray Test
Solvent: 78 parts by weight of acetone • • 1.5 parts by weight of dimethylformamide
as §3, §4
Discs of Chinese cabbage leaves (Brassica pekinensis) infested by all stages of the green peach aphid (Myzus persicae) are sprayed with an active ingredient formulation of the desired concentration.
After 6 days, the efficacy in % is determined 100% means that all the aphids have been killed; 0% means that no aphids have been killed.

[10] = system: Tetranychus urticae; test: Tetranychus urticae spray test, OP-resistant; assay type: in vivo; conditions: 500 g/ha, bean leaf discs, after 6 days
Protocol: Tetranychus urticae—Spray Test, OP-Resistant
as §2, §3, §4
Discs of bean leaves (Phaseolus vulgaris) infested by all stages of the greenhouse red spider mite (Tetranychus urticae) are sprayed with an active ingredient formulation of the desired concentration.
After 6 days, the efficacy in % is determined. 100% means that all the spider mites have been killed; 0% means that no spider mites have been killed.

[11] = HPLC, reversed-phase C18, 55° C., final compounds table
[12] = pH 3.4, HPLC-MS, preparation examples, read-out: log P
[13] = HPLC, reversed-phase C18, 55° C., final compounds table, read-out: log P neutral

| Compound | log P neutral [3, 11] | efficacy [1] [%] | nematicidal efficacy (formation of galls) [2] [%] | efficacy (kill) [7] [%] | further results |
| --- | --- | --- | --- | --- | --- |
| O=C(Nc1ncn(-c2c(F)cccc2F)n1)c1ccccc1C(F)(F)F [Compound I-1-11, 2-Trifluoromethyl-N-[1-(2,6-difluorophenyl)-1H-1,2,4-triazol-3-yl]benzamide] | – | 100 | 90 | – | efficacy (kill) [4]: 100%; efficacy (kill) [5]: 80%; chromatographic logP [3, 12]: 1.97; chromatographic logP [3, 13]: 1.97 |
| O=C(Nc1ncn(-c2c(F)cccc2F)n1)c1ccccc1C(F)F [Compound I-1-18] | 1.92 | 80 | 100 | – | efficacy [6]: 83% |
| O=C(Nc1ncn(-c2c(F)cccc2F)n1)c1ccccc1I [Compound I-1-21] | 1.89 | – | 100 | 100 | efficacy (kill) [8]: 80% |
| O=C(Nc1ncn(-c2c(F)cccc2F)n1)c1nccnc1C(F)(F)F [Compound I-1-24] | 1.73 | 100 | 100 | – | efficacy (kill) [4]: 100%; efficacy (kill) [5]: 80% |
| O=C(Nc1ncn(-c2c(F)cccc2Br)n1)c1ccccc1C(F)(F)F [Compound I-1-30, 2-Trifluoromethyl-N-[1-(2-bromo-6-fluorophenyl)-1H-1,2,4-triazol-3-yl]benzamide] | – | 100 | 100 | 80 | chromatographic logP ([3]; HPLC-MS, preparation examples, read-out: log P (neutral)): 2.15 |
| O=C(Nc1ncn(-c2c(F)ccc(F)c2F)n1)c1ccccc1C(F)(F)F [Compound I-1-57] | 2.10 | 90 | 100 | 100 | – |
| O=C(Nc1ncn(-c2c(F)ccc(F)c2F)n1)c1ccccc1I [Compound I-1-59] | 2.03 | 100 | 100 | 90 | – |
| O=C(Nc1ncn(-c2c(F)c(F)c(F)c(F)c2F)n1)c1ccccc1C(F)(F)F [Compound I-1-65] | 2.49 | 100 | – | – | – |
| O=C(Nc1ncn(-c2c(F)cccc2I)n1)c1ccccc1I [Compound I-1-85] | 2.15 | – | 100 | 80 | – |
| Cc1cc(C)c([S+]([O-])CC(F)(F)F)cc1-n1cnc(NC(=O)c2ccccc2C(F)(F)F)n1 (stereo not drawn) [Compound I-1-90] | 2.31 | – | – | – | efficacy [10]: 95% |
| O=C(Nc1ncn(-c2c(F)cccc2F)n1)c1ncccc1C(F)(F)F [Compound I-1-91] | 1.82 | – | 100 | – | efficacy [6]: 100% |
| O=C(Nc1nnn(-c2ccccc2)n1)c1ccccc1C(F)(F)F [Compound I-2-3, N-(2-Phenyl-2H-tetrazol-5-yl)-2-(trifluoromethyl)benzamide] | – | – | – | – | efficacy [6]: 100%; chromatographic logP [3, 12]: 2.57; chromatographic logP [3, 13]: 2.57 |

Further lines, with some results ahead:

| log P neutral [3, 11] | Compound | efficacy [1] [%] | nematicidal efficacy (formation of galls) [2] [%] | efficacy (kill) [7] [%] | further results |
| --- | --- | --- | --- | --- | --- |
| 2.51 | O=C(Nc1ncn(-c2ccccc2OC(F)(F)F)n1)c1ccccc1C(F)(F)F [Compound I-1-10] | 100 | 100 | – | – |
| 2.10 | O=C(Nc1ncn(-c2c(F)cccc2Cl)n1)c1ccccc1C(F)(F)F [Compound I-1-33] | 100 | 100 | 100 | efficacy [6]: 100% |
| 2.26 | O=C(Nc1ncn(-c2c(Cl)cccc2Cl)n1)c1ccccc1C(F)(F)F [Compound I-1-44] | 90 | 100 | – | – |
| 2.15 | O=C(Nc1ncn(-c2ccccc2Br)n1)c1ccccc1C(F)(F)F [Compound I-1-70] | – | 90 | 80 | – |
| 2.09 | O=C(Nc1ncn(-c2ccccc2Br)n1)c1ccccc1I [Compound I-1-72] | – | – | – | efficacy [9]: 90% |
| 2.21 | O=C(Nc1ncn(-c2c(F)cccc2I)n1)c1ccccc1C(F)(F)F [Compound I-1-83] | – | 100 | 80 | – |
